Consider 50 compounds from the supplement of paper PMC12325586.

The structures appear in SMILES notation.

The test system of this assay is MIA PaCa-2. The procedure: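 MIA PaCa-2 Tet-on shOFD1 pancreatic cancer cells (2000 cells/well, 96-well) were treated with Selleck FDA-approved library compounds at 0, 1, 5, 10, 25 and 50 µM, with extra concentrations added where needed, for 72 h at 37 °C. Knockdown wells also received 100 ng/mL doxycycline; control wells received DMSO without doxycycline. Viability was read by CCK-8 absorbance at 450 nm and normalised to DMSO control wells. IC50 was fitted in GraphPad Prism as a 4-parameter logistic with bottom fixed at 0 and top fixed at 1; at least 3 technical replicate wells per condition.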

The mark [1] stands for this setting: OFD1 knockdown: no (no doxycycline).
Setting [2] is: OFD1 knockdown: yes (Tet-on shOFD1, 100 ng/mL doxycycline).

Take `CC1=C(/C=C/C(C)=C/C=C/C(C)=C\C(=O)O)C(C)(C)CCC1` [S1379]: the IC50 cell viability amounted to 12.2 µM under setting [1] and 11.5 µM under setting [2].

For `CN(C)c1nc(N(C)C)nc(N(C)C)n1` [S1278], the IC50 cell viability runs as follows: under setting [1], 2.56 µM; under setting [2], 2.43 µM.

In the case of `Cc1c(C(=O)NN2CCCCC2)nn(-c2ccc(Cl)cc2Cl)c1-c1ccc(Cl)cc1` [S3021], the IC50 cell viability runs as follows: under setting [1], 19 µM; under setting [2], 17.7 µM.

Regarding `O=C1c2c(O)ccc(O)c2C(=O)c2c(NCCNCCO)ccc(NCCNCCO)c21` [S2485], the IC50 cell viability by setting is: under setting [1], 3.55 µM; under setting [2], 3.77 µM.

In the case of `CCN(CC)C(=O)/C(C#N)=C/c1cc(O)c(O)c([N+](=O)[O-])c1` [S3147], the IC50 cell viability reads like this: under setting [1], 3.57 µM; under setting [2], 3.44 µM.

Take `O=C(Nc1c(Cl)cncc1Cl)c1ccc(OC(F)F)c(OCC2CC2)c1` [S2131]: the IC50 cell viability was found to be 22 µM under setting [1] and 20 µM under setting [2].

In the case of `C[C@]1(O)C[C@@H](c2nc(-c3ccc4ccc(-c5ccccc5)nc4c3)c3c(N)nccn32)C1` [S1091], the IC50 cell viability came out at 48.3 µM under setting [1] and 49.9 µM under setting [2].

For the compound `C#Cc1cccc(Nc2ncnc3cc(OCCOC)c(OCCOC)cc23)c1` [S1023], the IC50 cell viability under setting [1] amounted to 59.1 µM and the IC50 cell viability under setting [2] amounted to 65.3 µM.

`CN(C)C/C=C/C(=O)Nc1cc2c(Nc3ccc(F)c(Cl)c3)ncnc2cc1O[C@H]1CCOC1` [S1011]: the IC50 cell viability runs as follows: under setting [1], 66.1 µM; under setting [2], 87.7 µM.

Consider `Cc1cccc(-c2nn3c(c2-c2ccnc4ccc(C(N)=O)cc24)CCC3)n1` [S2230], for which the IC50 cell viability is, setting by setting: under setting [1], 3.61 µM; under setting [2], 3.02 µM.

For the compound `CNCc1ccc(-c2[nH]c3cc(F)cc4c3c2CCNC4=O)cc1` [S1098], the IC50 cell viability is, setting by setting: under setting [1], 31.8 µM; under setting [2], 18.9 µM.

With `O=c1sn(-c2cccc3ccccc23)c(=O)n1Cc1ccccc1` [S2823], the IC50 cell viability by setting is: under setting [1], 17.9 µM; under setting [2], 17.7 µM.

For `C[C@@H](O[C@H]1OCCN(Cc2n[nH]c(=O)[nH]2)[C@H]1c1ccc(F)cc1)c1cc(C(F)(F)F)cc(C(F)(F)F)c1` [S1189], the IC50 cell viability under setting [1] turned out to be 13.9 µM and the IC50 cell viability under setting [2] is 14.2 µM.

In the case of `Oc1ncnc2[nH]ncc12` [S1630], the IC50 cell viability under setting [1] is 13.5 µM and the IC50 cell viability under setting [2] was 13.3 µM.

As for `COc1cc2ncnc(Nc3ccc(F)c(Cl)c3)c2cc1NC(=O)/C=C/CN1CCCCC1` [S2727], the IC50 cell viability reads like this: under setting [1], 30.1 µM; under setting [2], 29.6 µM.

With `N#CC[C@H](C1CCCC1)n1cc(-c2ncnc3[nH]ccc23)cn1` [S1378], the IC50 cell viability under setting [1] stood at 70.3 µM and the IC50 cell viability under setting [2] is 68.4 µM.

On to `Cn1cc(C2=C(c3cn(C4CCN(Cc5ccccn5)CC4)c4ccccc34)C(=O)NC2=O)c2ccccc21` [S1055], for which the IC50 cell viability is, setting by setting: under setting [1], 13.8 µM; under setting [2], 12.5 µM.

Turning to `CCC(C)n1ncn(-c2ccc(N3CCN(c4ccc(OCC5COC(Cn6cncn6)(c6ccc(Cl)cc6Cl)O5)cc4)CC3)cc2)c1=O` (stereo not given) [S2476], the IC50 cell viability is 22.1 µM under setting [1] and 23 µM under setting [2].

Consider `Nc1ccccc1NC(=O)c1ccc(CNc2nccc(-c3cccnc3)n2)cc1` [S1122], for which the IC50 cell viability by setting is: under setting [1], 1.29 µM; under setting [2], 1.07 µM.

With `CC(C)(C)NCC(O)c1ccc(O)c(CO)c1` (stereo not given) [S2507], the IC50 cell viability by setting is: under setting [1], 4.57 µM; under setting [2], 4.1 µM.

As to `CC[C@@]1(O)C(=O)OCc2c1cc1n(c2=O)Cc2cc3c(CN(C)C)c(O)ccc3nc2-1` [S1231], the IC50 cell viability runs as follows: under setting [1], 54.5 µM; under setting [2], 49.8 µM.

`N#Cc1ccc(C(c2ccc(C#N)cc2)n2cncn2)cc1` [S1235]: the IC50 cell viability amounted to 12.5 µM under setting [1] and 12.4 µM under setting [2].

Consider `CC(=O)O[C@@]12CO[C@@H]1C[C@H](O)[C@@]1(C)C(=O)[C@H](O)C3=C(C)[C@@H](OC(=O)[C@H](O)[C@@H](NC(=O)OC(C)(C)C)c4ccccc4)C[C@@](O)([C@@H](OC(=O)c4ccccc4)[C@H]21)C3(C)C` [S1148], for which the IC50 cell viability was 0.39 µM under setting [1] and 0.34 µM under setting [2].

Regarding `CN(CCOc1ccc(CC2SC(=O)NC2=O)cc1)c1ccccn1` (stereo not given) [S2556], the IC50 cell viability worked out at 8.62 µM under setting [1] and 7.63 µM under setting [2].

Compound `Cc1cn(-c2cc(NC(=O)c3ccc(C)c(Nc4nccc(-c5cccnc5)n4)c3)cc(C(F)(F)F)c2)cn1` [S1033] gave an IC50 cell viability under setting [1] of 18.9 µM and an IC50 cell viability under setting [2] of 17.3 µM.

For the compound `O=S(=O)(O)CCS` [S1735], the IC50 cell viability amounted to 19.2 µM under setting [1] and 18.3 µM under setting [2].

As to `CC1(COc2ccc3c(c2)ncn3-c2ccc3cccc(N4CCC(N)CC4)c3n2)COC1` [S2730], the IC50 cell viability was 13.2 µM under setting [1] and 12.9 µM under setting [2].

`NC(=O)C1CCCc2c1[nH]c1ccc(Cl)cc21` (stereo not given) [S1541]: the IC50 cell viability is, setting by setting: under setting [1], 70.7 µM; under setting [2], 65 µM.

`C=CC(=O)N1CCC[C@@H](n2nc(-c3ccc(Oc4ccccc4)cc3)c3c(N)ncnc32)C1` [S2680]: the IC50 cell viability is 53.1 µM under setting [1] and 52.4 µM under setting [2].

Take `C=C1C[C@@H]2[C@H](CC[C@]3(C)C(=O)CC[C@@H]23)[C@@]2(C)C=CC(=O)C=C12` [S1196]: the IC50 cell viability under setting [1] worked out at 53.5 µM and the IC50 cell viability under setting [2] was 50.2 µM.

Take `COc1cc(Nc2ncc3c(n2)-c2ccc(Cl)cc2C(c2c(F)cccc2OC)=NC3)ccc1C(=O)O` [S1133]: the IC50 cell viability is 8.24 µM under setting [1] and 10.5 µM under setting [2].

Consider `Cc1ccccc1C(=O)Nc1ccc(C(=O)N2CCCC(O)c3cc(Cl)ccc32)c(C)c1` (stereo not given) [S2593], for which the IC50 cell viability was 3.68 µM under setting [1] and 3.47 µM under setting [2].

For `CC(=O)O[C@H]1C(=O)[C@@]2(C)[C@H]([C@H](OC(=O)c3ccccc3)[C@]3(O)C[C@H](OC(=O)[C@H](O)[C@@H](NC(=O)c4ccccc4)c4ccccc4)C(C)=C1C3(C)C)[C@]1(OC(C)=O)CO[C@@H]1C[C@@H]2O` [S1150], the IC50 cell viability worked out at 19 µM under setting [1] and 17.6 µM under setting [2].

Consider `Cc1ccc(C(=O)Nc2ccc(CN3CCN(C)CC3)c(C(F)(F)F)c2)cc1C#Cc1cnc2cccnn12` [S1490], for which the IC50 cell viability reads like this: under setting [1], 3.75 µM; under setting [2], 3.86 µM.

With `Cc1nnc(C(C)C)n1[C@H]1C[C@H]2CC[C@@H](C1)N2CC[C@H](NC(=O)C1CCC(F)(F)CC1)c1ccccc1` [S2003], the IC50 cell viability worked out at 11 µM under setting [1] and 10.3 µM under setting [2].

On to `Cc1ccc(F)c(NC(=O)Nc2ccc(-c3cccc4[nH]nc(N)c34)cc2)c1` [S1003], for which the IC50 cell viability stood at 6.31 µM under setting [1] and 6.22 µM under setting [2].

In the case of `C#Cc1cccc(Nc2ncnc3cc(OC)c(OCCCCCCC(=O)NO)cc23)c1` [S1194], the IC50 cell viability came out at 1.35 µM under setting [1] and 1.14 µM under setting [2].

For the compound `CC(O)(CS(=O)(=O)c1ccc(F)cc1)C(=O)Nc1ccc(C#N)c(C(F)(F)F)c1` (stereo not given) [S1190], the IC50 cell viability runs as follows: under setting [1], 53.5 µM; under setting [2], 45.6 µM.

Turning to `O=C1[C@H](CC[C@H](O)c2ccc(F)cc2)[C@@H](c2ccc(O)cc2)N1c1ccc(F)cc1` [S1655], the IC50 cell viability by setting is: under setting [1], 3.33 µM; under setting [2], 3.62 µM.

Consider `CC1(C)CCC(c2ccc(Cl)cc2)=C(CN2CCN(c3ccc(C(=O)NS(=O)(=O)c4ccc(N[C@H](CCN5CCOCC5)CSc5ccccc5)c(S(=O)(=O)C(F)(F)F)c4)cc3)CC2)C1` [S1001], for which the IC50 cell viability runs as follows: under setting [1], 18.7 µM; under setting [2], 19 µM.

Turning to `CCN(CC)CCNC(=O)c1c(C)[nH]c(/C=C2\C(=O)Nc3ccc(F)cc32)c1C` [S1042], the IC50 cell viability is, setting by setting: under setting [1], 2.85 µM; under setting [2], 2.98 µM.

As to `C[C@]12C=CC(=O)N[C@@H]1CC[C@@H]1[C@@H]2CC[C@]2(C)[C@@H](C(=O)Nc3cc(C(F)(F)F)ccc3C(F)(F)F)CC[C@@H]12` [S1202], the IC50 cell viability was found to be 2.38 µM under setting [1] and 2.28 µM under setting [2].

`CO[C@H]1C[C@@H]2CC[C@@H](C)[C@@](O)(O2)C(=O)C(=O)N2CCCC[C@H]2C(=O)O[C@H]([C@H](C)C[C@@H]2CC[C@@H](OCCO)[C@H](OC)C2)CC(=O)[C@H](C)/C=C(\C)[C@@H](O)[C@@H](OC)C(=O)[C@H](C)C[C@H](C)/C=C/C=C/C=C/1C` [S1120]: the IC50 cell viability was found to be 2.19 µM under setting [1] and 2.81 µM under setting [2].

For `COc1cccc2c1C(=O)c1c(O)c3c(c(O)c1C2=O)CC(O)(C(=O)CO)CC3OC1CC(N)C(O)C(C)O1` (stereo not given) [S1208], the IC50 cell viability turned out to be 1.85 µM under setting [1] and 1.52 µM under setting [2].

For the compound `Cn1cnc([N+](=O)[O-])c1Sc1ncnc2[nH]cnc12` [S1721], the IC50 cell viability by setting is: under setting [1], 28.1 µM; under setting [2], 29.2 µM.

With `COc1cc(Nc2c(C#N)cnc3cc(OCCCN4CCN(C)CC4)c(OC)cc23)c(Cl)cc1Cl` [S1014], the IC50 cell viability by setting is: under setting [1], 6.31 µM; under setting [2], 6.07 µM.

Turning to `CC(C)C[C@H](NC(=O)CNC(=O)c1cc(Cl)ccc1Cl)B(O)O` [S2180], the IC50 cell viability under setting [1] is 45.1 µM and the IC50 cell viability under setting [2] came to 39.6 µM.

Compound `CC(=O)Nc1cccc(-n2c(=O)n(C3CC3)c(=O)c3c(Nc4ccc(I)cc4F)n(C)c(=O)c(C)c32)c1` [S2673] gave an IC50 cell viability under setting [1] of 23.9 µM and an IC50 cell viability under setting [2] of 21.9 µM.

On to `Nc1nc(F)nc2c1ncn2[C@@H]1O[C@H](COP(=O)(O)O)[C@@H](O)[C@@H]1O` [S1229], for which the IC50 cell viability by setting is: under setting [1], 2.26 µM; under setting [2], 1.95 µM.

Consider `CO[C@H]1C[C@@H]2CC[C@@H](C)[C@@](O)(O2)C(=O)C(=O)N2CCCC[C@H]2C(=O)O[C@H]([C@H](C)C[C@@H]2CC[C@@H](O)[C@H](OC)C2)CC(=O)[C@H](C)/C=C(\C)[C@@H](O)[C@@H](OC)C(=O)[C@H](C)C[C@H](C)/C=C/C=C/C=C/1C` [S1039], for which the IC50 cell viability was 0.56 µM under setting [1] and 0.54 µM under setting [2].
